For experiment [1], the system named is A.D.P. induced blood-platelet aggregation. Briefly: Determination of A.D.P. induced blood-platelet aggregation. Conditions: Wistar rats, 100 mg/kg orally, 3 hours after treatment, 10 μM A.D.P. solution, vs reference group, groups of 20 rats; for inhibition at 100 mg/kg: Rattus norvegicus, po, read-out: Percent inhibition of blood-platelet aggregation, A.D.P. Type of experiment: in vivo. The procedure:
(§1) 1. Blood-platelet aggregation inhibiting activity
(§2) Blood is taken from the jugular vein of Wistar rats. From this citrated blood and after centrifugation, is reconstituted a plasma containing 600,000±20,000 blood-platelets per mm3 which will be used in all aggregation determinations.
(§3) 0.4 ml of plasma is placed in a siliconized tube provided with a magnet bar which is also siliconized. The tube is introduced into an aggregometer connected with an apparatus which records optical density variations. When light transmission has attained a stable value, 0.5 ml of a solution containing 10 μM A.D.P. (Adenosine-Di-Phosphate) are introduced into the tube.
(§4) Blood-platelet aggregation then produces an increase of light transmission followed by a decrease subsequent to the deaggregation phase.
(§5) The maximal optical density variation thus determined characterizes the intensity of the aggregation.
(§6) Different groups of 20 rats each are used, each group being orally administered a test derivative at a dosage of 100 mg/kg.

The test system of experiment [2] is collagen-induced blood-platelet aggregation. The experiment in a line: Determination of collagen-induced blood-platelet aggregation. Type of experiment: in vivo. Conditions: Wistar rats, 100 mg/kg orally, 3 hours after treatment, collagen solution (bovine tendon extract), vs reference group, groups of 20 rats; for inhibition at 100 mg/kg: Rattus norvegicus, po, read-out: Percent inhibition of blood-platelet aggregation, Collagen. The procedure: as §1, §2, §3, §4, §5
The A.D.P. solution is substituted with a collagen solution (bovine tendon extract).
as §6

Turning to `CC1NCc2c(sc3ccc(Cl)cc23)C1c1ccccc1` (centres unmarked) [Example 1, 8-Chloro-3-methyl-4-phenyl-1,2,3,4-tetrahydro-benzo(b)-thieno[3,2-c]pyridine], the inhibition at 100 mg/kg was 62.1% in experiment [1] and 91.4% in experiment [2].

For `CC1NCc2c(sc3ccccc23)C1c1ccccc1` (centres unmarked) [Example 2, 3-Methyl-4-phenyl-1,2,3,4-tetrahydro-benzo(b)-thieno[3,2-c]-pyridine], the inhibition at 100 mg/kg stood at 61.7% in experiment [1] and 93.8% in experiment [2].

On to `Clc1ccc2sc3c(c2c1)CNCC3c1ccccc1` (centres unmarked) [Example 3, 8-Chloro-1-phenyl-1,2,3,4-tetrahydro-benzo(b)thieno[3,2-c]-pyridine], for which the inhibition at 100 mg/kg came to 62.9% in experiment [1] and 90.5% in experiment [2].

In the case of `c1ccc(C2CNCc3c2sc2ccccc32)cc1` (centres unmarked) [Example 4, 4-Phenyl-1,2,3,4-tetrahydro-benzo(b)thieno[3,2-c]pyridine], the inhibition at 100 mg/kg in experiment [1] came to 61.5%; in experiment [2], 90.8%.

On to `CC1C(c2ccccc2)c2sc3ccc(Cl)cc3c2CN1C` (centres unmarked) [Example 5, 8-Chloro-2,3-dimethyl-4-phenyl-1,2,3,4-tetrahydro-benzo(b)-thieno[3,2-c]pyridine], for which the inhibition at 100 mg/kg in experiment [1] amounted to 60.8%; in experiment [2] it was 91.2%.

Take `CC1C(c2ccccc2)c2sc3ccc(Cl)cc3c2CN1Cc1ccccc1Cl` (centres unmarked) [Example 6, 8-Chloro-2-o-chlorobenzyl-3-methyl-4-phenyl-1,2,3,4-tetrahydro-benzo(b)thieno[3,2-c]pyridine]: the inhibition at 100 mg/kg turned out to be 61.2% in experiment [1] and 94.4% in experiment [2].

For `CC1C(c2ccccc2)c2sc3ccc(Cl)cc3c2CN1Cc1ccccc1` (centres unmarked) [Example 7, 2-Benzyl-8-chloro-3-methyl-4-phenyl-1,2,3,4-tetrahydro-benzo(b)thieno[3,2-c]pyridine], the inhibition at 100 mg/kg in experiment [1] stood at 63%; in experiment [2] it was 95.1%.

Consider `Cc1ccc(N2Cc3c(sc4ccccc34)C(c3ccccc3)C2)cc1` (centres unmarked) [Example 8, 4-Phenyl-2-p.tolyl-1,2,3,4-tetrahydro-benzo(b)-thieno[3,2-c]-pyridine], for which the “Percent inhibition of blood-platelet aggregation, A.D.P.” value in experiment [1] turned out to be 61.4%. Besides, the “Percent inhibition of blood-platelet aggregation, Collagen” value in experiment [2] came to 90.6%.

Consider `COc1cccc(CN2Cc3c(sc4ccccc34)C(c3ccccc3)C2C)c1` (centres unmarked) [Example 9, 3-Methyl-P2-m.methoxybenzyl-4-phenyl-1,2,3,4-tetrahydro-benzo(b)thieno[3,2-c]pyridine], for which the inhibition at 100 mg/kg came out at 61.8% in experiment [1] and 91.2% in experiment [2].

As to `COc1cc(CN2Cc3c(sc4ccc(Cl)cc34)C(c3ccccc3)C2C)cc(OC)c1OC` (centres unmarked) [Example 10, 8-Chloro-2-(3,4,5-trimethoxy-benzyl)-3-methyl-4-phenyl-1,2,3,4-tetrahydro-benzo(b)thieno[3,2-c]pyridine], the inhibition at 100 mg/kg in experiment [1] turned out to be 60.2%; in experiment [2] it was 94.5%.

`O=[N+]([O-])c1ccccc1CN1Cc2c(sc3ccc(Cl)cc23)C(c2ccccc2)C1` (centres unmarked) [Example 11, 8-Chloro-2-o.nitrobenzyl-4-phenyl-1,2,3,4-tetrahydro-benzo(b)thieno[3,2-c]pyridine]: the figures for the inhibition at 100 mg/kg in experiment [1] and in experiment [2] were 62.5% and 92.7%, respectively.

Turning to `N#Cc1ccccc1CN1Cc2c(sc3ccccc23)C(c2ccccc2)C1` (centres unmarked) [Example 12, 2-o.Cyanobenzyl-4-phenyl-1,2,3,4-tetrahydro-benzo(b)thieno-[3,2-c]pyridine], the inhibition at 100 mg/kg is 61.3% in experiment [1] and 92.2% in experiment [2].

Regarding `COC(=O)c1ccccc1CN1Cc2c(sc3ccc(Cl)cc23)C(c2ccccc2)C1C` (centres unmarked) [Example 13, 8-Chloro-3-methyl-2-o.methoxycarbonylbenzyl-4-phenyl-1,2,3,4-tetrahydro-benzo(b)thieno[3,2-c]pyridine], the inhibition at 100 mg/kg in experiment [1] came out at 62.1%; in experiment [2], 95%.

As to `CC1C(c2ccccc2)c2sc3ccc(Cl)cc3c2CN1Cc1ccccc1C(=O)O` (centres unmarked) [Example 14, 2-o.Carboxybenzyl-8-chloro-3-methyl-4-phenyl-1,2,3,4-tetrahydro-benzo(b)thieno[3,2-c]pyridine], the inhibition at 100 mg/kg in experiment [1] came out at 60.6%; in experiment [2] it was 93.8%.

For `CCCCN1Cc2c(sc3ccc(Cl)cc23)C(c2ccccc2)C1C` (centres unmarked) [Example 15, 2-Butyl-8-chloro-3-methyl-4-phenyl-1,2,3,4-tetrahydro-benzo(b)thieno[3,2-c]pyridine], the inhibition at 100 mg/kg in experiment [1] was 60.1%; in experiment [2], 92.6%.

`CC1C(c2ccccc2)c2sc3ccccc3c2CN1CCc1ccccc1` (centres unmarked) [Example 16, 3-Methyl-2-phenethyl-4-phenyl-1,2,3,4-tetrahydro-benzo(b)-thieno[3,2-c]pyridine]: the inhibition at 100 mg/kg in experiment [1] is 62.7%; in experiment [2], 93.2%.

As for `CC1C(c2ccccc2)c2sc3ccc(Cl)cc3c2CN1Cc1cccnc1` (centres unmarked) [Example 17, 8-Chloro-3-methyl-4-phenyl-2-(3-pyridyl)methyl-1,2,3,4-tetrahydro-benzo(b)thieno[3,2-c]pyridine], the results for the inhibition at 100 mg/kg in experiment [1] and in experiment [2] were 63.5% and 90.4%, respectively.

Turning to `CC1C(c2ccccc2)c2sc3ccccc3c2CN1Cc1ccccn1` (centres unmarked) [Example 18, 3-Methyl-4-phenyl-2-(2-pyridyl)methyl-1,2,3,4-tetrahydro-benzo(b)thieno[3,2-c]pyridine], the inhibition at 100 mg/kg was 61.3% in experiment [1] and 91.7% in experiment [2].

Regarding `CC1C(c2ccccc2)c2sc3ccc(Cl)cc3c2CN1Cc1ccncc1` (centres unmarked) [Example 19, 8-Chloro-3-methyl-4-phenyl-2-(4-pyridyl)methyl-1,2,3,4,-tetrahydrobenzo(b)thieno[3,2-c]pyridine], the figures for the inhibition at 100 mg/kg in experiment [1] and in experiment [2] were 62.4% and 91.9%, respectively.

The inhibition is how much of the control response was suppressed.

Values taken from patent publication US4172134A, “Benzo [B]thienopyridines, process for their preparation and therapeutic compositions containing same” (Parcor, priority 1977, dated 1979).
